5 compounds from ChEMBL document CHEMBL1159386, “New bioactive coumarins from Kielmeyera albopunctata” (2003) can be followed below.

≈ marks a conversion by molar mass, not a printed value.

What all share (assay type): functional
One experiment concerns Lu1. Kind of experiment: Cytotoxicity against human Lu1 cells. Particulars: read-out: ED50 (the source's name).
A further experiment deals with Col2. The experiment is described as follows: Cytotoxicity against human Col2 cells. The conditions noted are these: read-out: ED50 (the source's name).
A further experiment has as its system KB. Kind of experiment: Cytotoxicity against human KB cells. Particulars: read-out: ED50 (the source's name).
A further experiment relates to LNCaP. The experiment is described as follows: Cytotoxicity against human LNCAP cells. The conditions noted are these: read-out: ED50 (the source's name).
Experiment [1] has as its system Trypanosoma cruzi. The experiment is described as follows: Antitrypanosomal activity against Trypanosoma cruzi trypomastigotes assessed as parasite lysis 7.5 ug/mL after 24 hrs.
Experiment [2] deals with Trypanosoma cruzi. Kind of experiment: Antitrypanosomal activity against Trypanosoma cruzi trypomastigotes assessed as parasite lysis 500 ug/mL after 24 hrs.
In experiment [3] the test system is Trypanosoma cruzi. The experiment is described as follows: Antitrypanosomal activity against Trypanosoma cruzi trypomastigotes assessed as parasite lysis 125 ug/mL after 24 hrs.

With `Cc1c2ccncc2c(C)c2c1[nH]c1ccccc12` [ELLIPTECINE], the EC50 with Lu1 was determined as 0.02 µg/mL (≈ 0.0812 µM); with Col2, 0.3 µg/mL (≈ 1.22 µM); in the experiment with KB, 0.04 µg/mL (≈ 0.162 µM); with LNCaP, 0.8 µg/mL (≈ 3.25 µM).
In the case of `CN(C)c1ccc(C(=C2C=CC(=[N+](C)C)C=C2)c2ccc(N(C)C)cc2)cc1.[Cl-]` [GENTIAN VIOLET], in the experiment on Trypanosoma cruzi [1], the Activity came to 50%.
For `CC(C)=CCc1c(O)c(C(=O)CC(C)CO)c2oc(=O)cc(-c3ccccc3)c2c1O` (stereo not given), the EC50 in the experiment on Lu1 was determined as 19.8 µg/mL (≈ 46.9 µM); in the experiment on Col2, 17.4 µg/mL (≈ 41.2 µM); in the experiment on KB, 17.7 µg/mL (≈ 41.9 µM); with LNCaP, 15.9 µg/mL (≈ 37.6 µM). For the same compound, in the experiment on Trypanosoma cruzi [2], the Activity came out at 98%.
Consider `CCC(C)c1cc(=O)oc2c(C(=O)CC(C)CO)c(O)c3c(c12)OC(C(C)(C)O)C3` (stereo not given), for which the EC50 with Lu1, in the experiment with Col2, in the experiment on KB and in the experiment on LNCaP was greater than 20 µg/mL in each case.
For `CCC(C)c1cc(=O)oc2c(C(=O)CC(C)CO)c(O)c(CC=C(C)C)c(O)c12` (stereo not given), the EC50 with Lu1 is 19.4 µg/mL (≈ 48.2 µM); in the experiment on Col2 it was 13.1 µg/mL (≈ 32.5 µM); with KB, 15.8 µg/mL (≈ 39.3 µM); in the experiment with LNCaP it was 14 µg/mL (≈ 34.8 µM). In addition, the results for the Activity in the experiment on Trypanosoma cruzi [2] and in the experiment on Trypanosoma cruzi [3] were 100% and 80%, respectively.
